Results published in publication PMC7468576 (Acta Pharmacologica Sinica, 2019).
pIC50, pKi: −log10 of the molar value.

Tests used:
[1] = target: recombinant human IDO1 (rhIDO1) (Homo sapiens, UniProt P14902); assay: Enzymatic assay of IDO1; format: biochemical
[2] = target: rhTDO2 (purified TDO2 enzyme) (Homo sapiens, UniProt P48775); assay: Enzymatic assay of TDO2; format: biochemical
[3] = target: human IDO1 in HEK 293 cells (Homo sapiens, UniProt P14902); assay: Cell-based assay of IDO1 activity; settings: for inhibition of the cellular activity of IDO1: HEK 293 cells overexpressing human IDO1, kynurenine released, Fig. 2c
[4] = target: human TDO2 in HEK 293 cells (Homo sapiens, UniProt P48775); assay: Cell-based assay of TDO2 activity
IDO1 [5] = target: T1, IDO1 (Homo sapiens, UniProt P14902); assay: biochemical; settings: for mode of inhibition: L-tryptophan 7.5 μM to 30 μM, Fig. 4
IDO1 [6] = target: T1, IDO1; assay: IDO1 absorbance spectra; format: binding; settings: compound 20 μM, rhIDO1 3 μM; for absorbance of ferric-IDO1 at 404 nm: compared with control; for absorbance of ferrous-IDO1 at 428 nm: sodium dithionite
HEK 293 cells = assay: Cell viability assay; format: cell-based, human; settings: conditions used for the kynurenine assay

recombinant human IDO1 (rhIDO1), sequence (P14902 whole entry): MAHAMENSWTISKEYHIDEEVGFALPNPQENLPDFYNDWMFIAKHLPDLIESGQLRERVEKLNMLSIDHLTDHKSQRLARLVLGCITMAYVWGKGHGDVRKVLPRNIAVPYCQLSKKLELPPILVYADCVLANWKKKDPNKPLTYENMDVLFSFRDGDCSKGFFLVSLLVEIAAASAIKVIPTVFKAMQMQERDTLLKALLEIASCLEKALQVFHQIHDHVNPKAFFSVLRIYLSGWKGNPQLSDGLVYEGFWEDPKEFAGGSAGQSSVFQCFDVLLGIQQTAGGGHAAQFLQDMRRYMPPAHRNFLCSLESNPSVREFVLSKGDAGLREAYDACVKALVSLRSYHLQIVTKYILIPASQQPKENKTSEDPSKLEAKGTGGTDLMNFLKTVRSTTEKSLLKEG
T1 sequence (P14902 whole entry): as above
human IDO1 in HEK 293 cells, sequence (P14902 whole entry): as above

Structure (SMILES): CC(C)=CC[C@@H](O)C1=CC(=O)c2c(O)ccc(O)c2C1=O [Compound 7, shikonin]
- pIC50 [1]: 6.01
- pIC50 [2]: 5.30
- pIC50 [3]: 5.66
- inhibition of the cellular activity of IDO1 [3]: 101.8%
- pIC50 [4]: 5.85
- pKi (IDO1 [5]): 5.85
- mode of inhibition (IDO1 [5]): uncompetitive inhibition
- absorbance of ferric-IDO1 at 404 nm (IDO1 [6]): decreased
- absorbance of ferrous-IDO1 at 428 nm (IDO1 [6]): remained unchanged
- effect on cell viability (CCK8) (HEK 293 cells): slightly reduced cell viability

Structure (SMILES): C[C@H]1COC2=C1C(=O)C(=O)c1c2ccc2c1CCCC2(C)C [Compound B06F5, cryptotanshinone]
- inhibition at 20 µM ([1]; read-out: IDO1 inhibitory activity of tanshinone derivatives): > 40%

Structure (SMILES): Cc1cccc2c3c(ccc12)C1=C(C(=O)C3=O)[C@@H](C)CO1 [Compound 8, dihydrotanshinone I]
- pIC50 [1]: 5.55
- pIC50 [2]: 5.29
- pIC50 [3]: 4.59
- inhibition of the cellular activity of IDO1 [3]: 83.6%
- pIC50 [4]: 4.88
- pKi (IDO1 [5]): 5.55
- mode of inhibition (IDO1 [5]): uncompetitive inhibition
- absorbance of ferric-IDO1 at 404 nm (IDO1 [6]): decreased
- absorbance of ferrous-IDO1 at 428 nm (IDO1 [6]): remained unchanged
- effect on cell viability (CCK8) (HEK 293 cells): no effect on cell viability
